Data published in patent US9284297B2, “Halofuginone analogs for inhibition of tRNA synthetases and uses thereof” (President and Fellows of Harvard College, priority 2008, dated 2016).

Assays:
[1] = test system: Th17 differentiation of CD4+ CD25− T cells; assay: Th17 differentiation of CD4+ CD25− T cells (IL-17+ IFNγ− cells, intracellular cytokine staining); settings: activated in the presence of TGFβ plus IL-6, intracellular cytokine staining day 4
Procedure: Purified CD4^+ CD25^− T cells were activated in vitro as previously described (Djuretic et al., Nat. Immunol. 8:145, 2007) using 0.3 μg/ml hamster anti-mouse CD3 (clone 145-2C11) (ATCC, Manassas, Va.) and 0.5 μg/ml hamster anti-mouse CD28 (BD Pharmingen, San Jose, Calif.). Activated cell cultures were differentiated using the following combinations of cytokines and antibodies: iTreg—recombinant human TGFβ1 (3 ng/ml—R&D systems, Minneapolis, Minn.), Th17-TGFβ1 (3 ng/ml) plus recombinant mouse IL-6 (30 ng/ml—R&D systems). […] Human IL-2 supernatant (National Cancer Institute) was used in culture at 0.01 U/ml and was added at 48 hours-post activation when T cells were split into tissue culture wells lacking CD3 and CD28 antibodies, with the exception of Th17 cultures that were maintained in the absence of exogenous IL-2. […] All reagents (see below) were added at the time of T cell activation and again at 48 hours post activation unless indicated otherwise.
For detection of intracellular cytokines in murine cells, cultured T or B cells were stimulated with 10 nM PMA (Sigma) and 1 mM ionomycin (Sigma) for 4-5 hours in the presence of 10 mM brefeldin A (Sigma). Stimulated cells were harvested, washed with PBS and fixed with PBS plus 4% paraformaldehyde at room temperature for 20 minutes. Cells were then washed with PBS, permeabilized with PBS supplemented with 1% BSA and 0.5% saponin (Sigma) at room temperature for 10 minutes before cytokine-specific antibodies were added and incubated with cells for an additional 20 minutes at room temperature. […] All stained cells were stored at 4° C. in PBS plus 1% paraformaldehyde prior to FACS analyses.
All cell surface staining was performed in FACS buffer (PBS/2% FBS/0.1% NaN3) and antibodies were incubated with cells on ice for 20-30 minutes. Cells were washed with FACS buffer and fixed with FACS buffer plus 1% paraformaldehyde prior to data acquisition.

[2] = test system: CD4+ CD25− T cells (Th1, Th2, iTreg differentiation, proliferation, CD25), CD8+ T cells, B cells; assay: T and B cell activation, proliferation and Th1, Th2, iTreg differentiation; assay type: cell-based, murine; settings: polarizing cytokine conditions; IFNγ, IL-4, Foxp3 expression
Procedure: Cytokines secreted into media supernatant were measured using the mouse Th1/Th2 cytometric bead array (CBA—BD Pharmingen) in accordance with manufacturers instructions.

[3] = test system: Human primary dermal fibroblasts; assay: Inhibition of cell spreading in a fibroblast model; assay type: cell-based; set-up: key: “+++” vs. “++” vs. “+” in general denotes ˜4-fold differences in potency; “+++” vs. “++” vs. “+” in general denotes ˜4-fold differences in potency; “+++” vs. “++” vs. “+” in general denotes ˜4-fold differences in potency; “−” denotes no activity at any dose tested, up to 1000× the effective dose of halofuginone; settings: spreading of cells assessed by light microscopy 28 hours after treatment
Procedure: The ability of halofuginone and analogs thereof to inhibit the spreading of freshly plated primary dermal fibroblasts was examined. Human primary dermal fibroblasts were replated and halofuginone added immediately after replating; spreading of cells was assessed by light microscopy 28 hours after treatment with compound. “+++” vs. “++” vs. “+” in general denotes ˜4-fold differences in potency. “−” denotes no activity at any dose tested, up to 1000× the effective dose of halofuginone.

[4] = test system: Differentiation of primary naïve T-cells into Th17 cells; assay: Inhibition of Th17 differentiation of primary naïve T-cells by halofuginone analogs; assay type: cell-based, murine; set-up: key: “+++” vs. “++” vs. “+” in general denotes ˜4-fold differences in potency; “+++” vs. “++” vs. “+” in general denotes ˜4-fold differences in potency; “+++” vs. “++” vs. “+” in general denotes ˜4-fold differences in potency; “−” denotes no activity at any dose tested, up to 1000× the effective dose of halofuginone; settings: T-cell receptor stimulation+IL-6+TGFb
Procedure: Naïve T-cells were stimulated to differentiate in the presence or absence of 10 nM halofuginone, with 1 mM of the indicated amino acids added to the medium, and stained for Th17 differentiation on day 4. Naïve murine T cells were activated in the presence or absence of TGFβ plus IL-6 as indicated, expanded in for 4 days and restimulated with PMA and ionomycin for intracellular cytokine staining. […] Bars indicate percentage of cells differentiation as Th17 as indicated by IL17 expression.
The effect of different halofuginone and analogs thereof on differentiation of naïve T-cells was assayed as described in legend for FIG. 4 above. Differentiation of primary naïve T-cells into Th17 cells following T-cell receptor stimulation+IL-6+TGFb. “+++” vs. “++” vs. “+” in general denotes ˜4-fold differences in potency. “−” denotes no activity at any dose tested, up to 1000× the effective dose of halofuginone.

[5] = test system: translation of luciferase RNA in rabbit reticulocyte lysate; assay: Translation of a luciferase RNA reporter in rabbit reticulocyte lysate; assay type: biochemical; set-up: key to Translational inhibition: “+++” vs. “++” vs. “+” in general denotes ˜4-fold differences in potency; “+++” vs. “++” vs. “+” in general denotes ˜4-fold differences in potency; “+++” vs. “++” vs. “+” in general denotes ˜4-fold differences in potency; “−” denotes no activity at any dose tested, up to 1000× the effective dose of halofuginone; settings: luciferase RNA reporter
Procedure: To distinguish these possibilities, the effect of halofuginone on protein translation was examined in an in vitro system (rabbit reticulocyte lysate) in which amino acids are already present at levels adequate to support protein synthesis. […] Distinct tRNA synthetases catalyze the charging of individual tRNA species with their cognate amino acid. To determine which tRNA synthetase is inhibited by halofuginone, several amino acid mixtures were added to the in vitro translation system to determine which, if any, could reverse the inhibition of translation by halofuginone (FIG. 3). […] To examine whether proline could specifically rescue the effect of halofuginone in intact cells, the ability of each amino acid to reverse the effect of halofuginone on eIF2alpha phosphorylation in T-cells or to prevent halofuginone inhibition of Th17 differentiation was tested (FIG. 4). […] Inhibition of EPRS with compounds of the current invention can inhibit Th17 differentiation.
Translation in vitro was performed using rabbit reticulocyte lysates and luciferase mRNA as template. Translation was measured as arbitrary units of luciferase activity using a luminometer based luminescence assay. Log scale presentation of background-subtracted data is shown.
Inhibition of translation of luciferase RNA by halofuginone and analogs thereof was measured as described in FIG. 3 above. Results are shown of translation of a luciferase RNA reporter in a rabbit reticulocyte lysate. “+++” vs. “++” vs. “+” in general denotes ˜4-fold differences in potency. “−” denotes no activity at any dose tested, up to 1000× the effective dose of halofuginone.

[6] = test system: eIF2α phosphorylation and ATF4 protein levels in CD4+ CD25− T cells; assay: Amino acid response (AAR) pathway activation in T cells, western blot; assay type: cell-based, mice; settings: 4 hours
Procedure: CD4+ CD25− T cells purified from wild type of GCN2−/− mice were activated through TCR for 4 hours in the presence of halofuginone (10 nM) or 9 (MAZ1310, 10 nM). Whole cell lysates were analyzed by SDS PAGE/Western blot and antibodies indicated.
Naïve T-cells were treated to stimulate the T-cell receptor (TCR) in the presence or absence of 10 nM halofuginone in the presence of 1 mM added amino acid, and then assayed for eIF2alpha activity phosphorylation by SDS PAGE/Western blot.
HF induced detectable eIF2α phosphorylation at 2.5 nM, and this effect plateaued at 5-10 nM HF (FIG. 7D). […] AAR activation was a general consequence of HF treatment; HF induced eIF2α phosphorylation, not only in T cells activated in Th17-priming conditions, but also in resting naïve T cells and T cells activated in ThN, Th1, Th2, and iTreg polarizing conditions (FIG. 7F). […] Thus, the rapid activation of the AAR pathway by HF could underlie both its selective inhibition of Th17 differentiation and its effects on fibroblasts (Pines and Nagler, Gen. Pharmacol. 30:445, 1998).
To delineate the stress response pathway activated by HF, the effects of amino acid starvation with those of tunicamycin (an inducer of ER stress) or HF treatment during T cell activation were compared.
Whole cell lysates were generated from T cells activated for the indicated times. For STAT3 and Smad2/3 western blots cells were harvested, washed in PBS and lysed in 50 mM Tris, pH 7.4, 0.1% SDS, 1% Triton-X100, 140 mM NaCl, 1 mM EDTA, 1 mM EGTA supplemented with protease inhibitors tablets (Roche, Germany), 1 mM NaF and 1 mM Na3VO4. For eIF2α and ATF4 western blots, cells were harvested as above and lysed in 50 mM Tris, pH 7.4, 2% SDS, 20% glycerol and 2 mM EDTA supplemented with protease and phosphatase inhibitors as above. All lysates were cleared via centrifugation and 15-30 μg of protein was resolved by SDS-PAGE. Protein was transferred to nitrocellulose membranes, blocked and blotted using specific antibodies. Antibodies used for western blot analysis were anti-phospho-Smad2, anti-STAT3 (pY705), anti-STAT3, anti-eIF2α^pS51, anti-eIF2α (all from Cell Signaling Technology, Danvers, Mass.). Anti-ATF4/CREB2 and anti-β-actin were purchased from Santa Cruz Biotechnology (Santa Cruz, Calif.). HRP-conjugated secondary antibodies were all purchased from Sigma, with the exception of HRP-conjugated anti-armenian hamster antibody (Jackson Immunoresearch, West Grove, Pa.).

| Compound | inhibition of Th17 differentiation / IL-17 expression (in words) [1] | Fibroblast inhibition [3] | Translational inhibition [5] | other results |
| --- | --- | --- | --- | --- |
| O=C(CC1NCCCC1O)Cn1cnc2cc(Br)c(Cl)cc2c1=O (single isomer, unassigned) [D-enantiomer of HF] | inhibited IL-17 expression more potently than a racemic mixture |  |  |  |
| O=C(CC1NCCCC1O)Cn1cnc2cc(Br)c(Cl)cc2c1=O (single isomer, unassigned) [L-enantiomer] | completely inactive |  |  |  |
| C[C@@H]1C[C@H](C)C[C@H](C)[C@@H](O)CC(=O)O[C@H]([C@@H]2CCC[C@H]2C(=O)O)C/C=C/C=C(/C#N)[C@H](O)[C@@H](C)C1 [Borrelidin] | inhibits Th17 differentiation |  |  | effect on Th1, Th2, iTreg differentiation [2]: without affecting Th1, Th2, or Treg differentiation or cell number |
| O=C(CC1NCCCC1O)Cn1cnc2ccccc2c1=O (stereo not shown) [Compound 3, febrifugine] |  | ++ | ++ | Inhibition of Th17 differentiation [4]: ++ |
| C[Si](C)(C)C#Cc1cc2ncn(CC(=O)CC3NCCCC3O)c(=O)c2cc1Cl (stereo not shown) [Compound 5, 6-chloro-3-(3-((2S/R,3R/S)-3-hydroxypiperidin-2-yl)-2-oxopropyl)-7-((trimethylsilyl)ethynyl)quinazolin-4(3H)-one] |  | ++ |  |  |
| C#Cc1cc2ncn(CC(=O)CC3NCCCC3O)c(=O)c2cc1Cl (stereo not shown) [Compound 7, 6-chloro-7-ethynyl-3-(3-((2S/R,3R/S)-3-hydroxypiperidin-2-yl)-2-oxopropyl)quinazolin-4(3H)-one] |  | +++ | +++ | Inhibition of Th17 differentiation [4]: +++ |
| NCCOCCOCCNC(=O)CCCC#Cc1cc2ncn(CC(=O)CC3NCCCC3O)c(=O)c2cc1Cl (stereo not shown) [Compound 8, N-(2-(2-(2-aminoethoxy)ethoxy)ethyl)-6-(6-chloro-3-(3-((2S/R,3R/S)-3-hydroxypiperidin-2-yl)-2-oxopropyl)-4-oxo-3,4-dihydroquinazolin-7-yl)hex-5-ynamide] |  | + | + |  |
| CC(C)(C)OC(=O)N1CCCC(O)C1CC(=O)Cn1cnc2cc(Br)c(Cl)cc2c1=O (stereo not shown) [Compound 9, (2S/R,3R/S)-tert-butyl 2-(3-(7-bromo-6-chloro-4-oxoquinazolin-3(4H)-yl)-2-oxopropyl)-3-hydroxypiperidine-1-carboxylate] |  | − | − | Inhibition of Th17 differentiation [4]: −; phosphorylation of Ser51 of eIF2alpha, GCN2 dependence ([6]; 10 nM, T cells from wild type or GCN2−/− mice): inactive |
| COC(=O)CCCCC(=O)N/N=C(/CC1NCCCC1O)Cn1cnc2cc(Br)c(Cl)cc2c1=O (stereo not shown) [Compound 12, methyl 6-((Z)-2-(1-(7-bromo-6-chloro-4-oxoquinazolin-3(4H)-yl)-3-((2S/R,3R/S)-3-hydroxypiperidin-2-yl)propan-2-ylidene)hydrazinyl)-6-oxohexanoate] |  | ++ | ++ |  |
| CC(=O)N/N=C(/CC1NCCCC1O)Cn1cnc2cc(Br)c(Cl)cc2c1=O (stereo not shown) [Compound 14, (Z)—N′-(1-(7-bromo-6-chloro-4-oxoquinazolin-3(4H)-yl)-3-((2S/R,3R/S)-3-hydroxypiperidin-2-yl)propan-2-ylidene)acetohydrazide] |  |  | ++ |  |
| CCOP(=O)(OCC)OC1CCCNC1CC(=O)Cn1cnc2cc(Br)c(Cl)cc2c1=O (stereo not shown) [Compound 16, (2S/R,3R/S)-2-(3-(7-bromo-6-chloro-4-oxoquinazolin-3(4H)-yl)-2-oxopropyl)piperidin-3-yl diethyl phosphate] |  | − | − |  |
| N[C@H](CO)Cc1c[nH]c2ccccc12 [L-tryptophanol] | impaired IL-17 production |  |  | inhibition of Th17 differentiation / IL-17 expression (in words) ([1]; listed as tryptophanol): inhibited Th17 differentiation |
| C#Cc1cc2ncn(CC(=O)CC3NCCCC3O)c(=O)c2cc1Cl (stereo not shown) [MAZ1320] | selectively inhibit the differentiation of Th17 cells |  |  | effect on Th1, Th2, iTreg differentiation [2]: without inhibiting Th1 differentiation |
| N/N=C(/CC1NCCCC1O)Cn1cnc2cc(Br)c(Cl)cc2c1=O (stereo not shown) [MAZ1686] | selectively inhibit the differentiation of Th17 cells |  |  | effect on Th1, Th2, iTreg differentiation [2]: without inhibiting Th1 differentiation |
| N-(6-((Z)-2-(1-(7-bromo-6-chloro-4-oxoquinazolin-3(4H)-yl)-3-((2S/R,3R/S)-3-hydroxypiperidin-2-yl)propan-2-ylidene)hydrazinyl)-6-oxohexyl)-6-(5-(2-oxohexahydro-1H-thieno[3,4-d]imidazol-4-yl)pentanamido)hexanamide [Compound 13] |  | ++ | ++ | Inhibition of Th17 differentiation [4]: ++ |
| tunicamycin | had little influence on IL-17 expression in T cells |  |  | effect on Th1, Th2, iTreg differentiation [2]: preferentially impaired Th1 and Th2 differentiation; stress response pathway: eIF2α phosphorylation, ATF4 expression, Xbp-1 splicing ([6]; 10 nM HF or 1 μg/ml tunicamycin): induced eIF2α phosphorylation and ATF4 expression together with Xbp-1 splicing |
